From ChEMBL document CHEMBL4804285, “Small molecule inhibitors of cdk12/cdk13” (2019)
Several values for one entry are separate records, joined by “and”; a condition that tells them apart may be missing. Identical values can stand only once.

Tests used:
Cytochrome P450 2C9 = Cytochrome P450 2C9 (Homo sapiens, UniProt P11712); test: Inhibition of CYP2C9 (unknown origin); format: ADME
Cytochrome P450 1A2 = molecular target: T1, Cytochrome P450 1A2 (Homo sapiens, UniProt P05177); test: Inhibition of CYP1A2 (unknown origin); format: ADME
T1 sequence (P05177 whole entry): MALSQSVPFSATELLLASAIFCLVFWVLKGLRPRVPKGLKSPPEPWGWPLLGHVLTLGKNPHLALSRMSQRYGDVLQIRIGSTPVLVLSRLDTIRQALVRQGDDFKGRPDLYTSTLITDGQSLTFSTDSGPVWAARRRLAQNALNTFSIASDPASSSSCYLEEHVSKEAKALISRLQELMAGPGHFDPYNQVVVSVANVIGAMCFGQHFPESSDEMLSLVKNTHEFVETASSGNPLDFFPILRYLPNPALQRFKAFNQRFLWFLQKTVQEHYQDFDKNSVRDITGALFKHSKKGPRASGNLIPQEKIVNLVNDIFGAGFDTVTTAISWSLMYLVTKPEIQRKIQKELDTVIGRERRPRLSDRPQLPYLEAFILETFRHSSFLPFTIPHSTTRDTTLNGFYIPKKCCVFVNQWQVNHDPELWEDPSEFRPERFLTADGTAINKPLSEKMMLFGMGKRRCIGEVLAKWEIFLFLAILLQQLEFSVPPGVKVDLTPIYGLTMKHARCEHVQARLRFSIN

Cytochrome P450 3A4 = Cytochrome P450 3A4 (Homo sapiens, UniProt P08684); test: Inhibition of CYP3A4 (unknown origin); format: ADME
Cytochrome P450 3A4, sequence (P08684 whole entry): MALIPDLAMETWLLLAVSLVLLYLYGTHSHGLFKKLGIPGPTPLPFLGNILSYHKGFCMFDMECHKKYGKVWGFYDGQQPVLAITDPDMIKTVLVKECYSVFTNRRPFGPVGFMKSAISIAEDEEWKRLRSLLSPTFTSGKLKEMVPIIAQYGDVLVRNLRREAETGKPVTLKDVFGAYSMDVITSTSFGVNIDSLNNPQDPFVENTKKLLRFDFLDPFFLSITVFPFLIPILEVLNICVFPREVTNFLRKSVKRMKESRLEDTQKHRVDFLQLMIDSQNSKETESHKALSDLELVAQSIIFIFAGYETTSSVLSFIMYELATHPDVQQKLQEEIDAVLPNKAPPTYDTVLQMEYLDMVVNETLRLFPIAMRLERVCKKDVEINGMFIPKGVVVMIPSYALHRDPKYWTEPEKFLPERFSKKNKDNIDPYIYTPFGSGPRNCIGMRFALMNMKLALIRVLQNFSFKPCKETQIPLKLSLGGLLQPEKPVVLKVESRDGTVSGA

Cytochrome P450 2D6 = Cytochrome P450 2D6 (Homo sapiens, UniProt P10635); test: Inhibition of CYP2D6 (unknown origin); format: ADME
[1] = molecular target: Casein kinase I isoform epsilon (Homo sapiens, UniProt P49674); test: Inhibition of casein kinase 1epsilon (unknown origin)
Casein kinase I isoform epsilon, sequence (P49674 whole entry, canonical isoform): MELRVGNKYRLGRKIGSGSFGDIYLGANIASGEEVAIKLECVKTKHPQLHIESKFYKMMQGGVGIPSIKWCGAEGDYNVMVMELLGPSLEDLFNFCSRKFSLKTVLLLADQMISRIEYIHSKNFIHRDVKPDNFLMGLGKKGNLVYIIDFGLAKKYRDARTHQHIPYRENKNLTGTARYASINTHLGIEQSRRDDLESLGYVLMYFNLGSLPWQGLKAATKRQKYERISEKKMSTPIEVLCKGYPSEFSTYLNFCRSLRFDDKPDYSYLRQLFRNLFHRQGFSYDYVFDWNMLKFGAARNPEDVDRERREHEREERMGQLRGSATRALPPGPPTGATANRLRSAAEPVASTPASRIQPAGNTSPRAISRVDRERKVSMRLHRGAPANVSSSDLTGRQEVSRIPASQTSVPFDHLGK

[2] = Cmax in mouse at 20 mg/kg, ip; format: ADME, organism-based; design: route intraperitoneal, dose 20 mg/kg; settings: in vivo
[3] = molecular target: Casein kinase I isoform delta (Homo sapiens, UniProt P48730); test: Inhibition of casein kinase 1delta (unknown origin)
Casein kinase I isoform delta, sequence (P48730 whole entry, canonical isoform): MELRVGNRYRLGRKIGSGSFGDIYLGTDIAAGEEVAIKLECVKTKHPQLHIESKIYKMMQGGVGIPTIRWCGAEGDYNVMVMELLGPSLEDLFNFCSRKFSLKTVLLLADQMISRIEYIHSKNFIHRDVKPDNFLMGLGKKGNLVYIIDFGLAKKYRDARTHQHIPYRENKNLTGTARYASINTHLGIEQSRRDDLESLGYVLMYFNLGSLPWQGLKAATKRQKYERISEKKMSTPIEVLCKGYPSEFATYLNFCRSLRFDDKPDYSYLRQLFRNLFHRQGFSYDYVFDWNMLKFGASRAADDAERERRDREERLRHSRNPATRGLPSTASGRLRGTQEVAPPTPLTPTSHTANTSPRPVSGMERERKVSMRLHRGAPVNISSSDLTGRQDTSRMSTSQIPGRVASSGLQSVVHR

[4] = AUC (last) in mouse at 20 mg/kg, ip; format: ADME, organism-based; design: time 0 - last, route intraperitoneal, dose 20 mg/kg; settings: in vivo
[5] = molecular target: Cyclin-dependent kinase 7 (Homo sapiens) (UniProt P50613); test: Inhibition of CDK7 (unknown origin) at 10 uM relative to control
Cyclin-dependent kinase 7 (Homo sapiens), sequence (P50613 whole entry): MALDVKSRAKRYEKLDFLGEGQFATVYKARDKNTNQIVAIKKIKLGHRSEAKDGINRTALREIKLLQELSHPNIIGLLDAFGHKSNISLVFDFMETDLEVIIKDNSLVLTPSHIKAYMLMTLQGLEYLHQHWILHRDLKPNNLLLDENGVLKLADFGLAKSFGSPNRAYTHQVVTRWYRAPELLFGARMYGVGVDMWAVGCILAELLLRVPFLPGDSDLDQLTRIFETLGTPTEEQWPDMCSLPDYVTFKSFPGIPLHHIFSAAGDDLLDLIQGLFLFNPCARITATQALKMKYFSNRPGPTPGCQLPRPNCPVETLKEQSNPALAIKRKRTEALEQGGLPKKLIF

[6] = molecular target: Cyclin-dependent kinase 12 (Homo sapiens, UniProt Q9NYV4); test: Binding affinity towards CDK12 (unknown origin) by Discover X assay
[7] = molecular target: T2, Cyclin-dependent kinase 13 (Homo sapiens, UniProt Q14004); test: Binding affinity towards CDK13 (unknown origin) by Discover X assay
Target sequence in this assay (Q14004 whole entry): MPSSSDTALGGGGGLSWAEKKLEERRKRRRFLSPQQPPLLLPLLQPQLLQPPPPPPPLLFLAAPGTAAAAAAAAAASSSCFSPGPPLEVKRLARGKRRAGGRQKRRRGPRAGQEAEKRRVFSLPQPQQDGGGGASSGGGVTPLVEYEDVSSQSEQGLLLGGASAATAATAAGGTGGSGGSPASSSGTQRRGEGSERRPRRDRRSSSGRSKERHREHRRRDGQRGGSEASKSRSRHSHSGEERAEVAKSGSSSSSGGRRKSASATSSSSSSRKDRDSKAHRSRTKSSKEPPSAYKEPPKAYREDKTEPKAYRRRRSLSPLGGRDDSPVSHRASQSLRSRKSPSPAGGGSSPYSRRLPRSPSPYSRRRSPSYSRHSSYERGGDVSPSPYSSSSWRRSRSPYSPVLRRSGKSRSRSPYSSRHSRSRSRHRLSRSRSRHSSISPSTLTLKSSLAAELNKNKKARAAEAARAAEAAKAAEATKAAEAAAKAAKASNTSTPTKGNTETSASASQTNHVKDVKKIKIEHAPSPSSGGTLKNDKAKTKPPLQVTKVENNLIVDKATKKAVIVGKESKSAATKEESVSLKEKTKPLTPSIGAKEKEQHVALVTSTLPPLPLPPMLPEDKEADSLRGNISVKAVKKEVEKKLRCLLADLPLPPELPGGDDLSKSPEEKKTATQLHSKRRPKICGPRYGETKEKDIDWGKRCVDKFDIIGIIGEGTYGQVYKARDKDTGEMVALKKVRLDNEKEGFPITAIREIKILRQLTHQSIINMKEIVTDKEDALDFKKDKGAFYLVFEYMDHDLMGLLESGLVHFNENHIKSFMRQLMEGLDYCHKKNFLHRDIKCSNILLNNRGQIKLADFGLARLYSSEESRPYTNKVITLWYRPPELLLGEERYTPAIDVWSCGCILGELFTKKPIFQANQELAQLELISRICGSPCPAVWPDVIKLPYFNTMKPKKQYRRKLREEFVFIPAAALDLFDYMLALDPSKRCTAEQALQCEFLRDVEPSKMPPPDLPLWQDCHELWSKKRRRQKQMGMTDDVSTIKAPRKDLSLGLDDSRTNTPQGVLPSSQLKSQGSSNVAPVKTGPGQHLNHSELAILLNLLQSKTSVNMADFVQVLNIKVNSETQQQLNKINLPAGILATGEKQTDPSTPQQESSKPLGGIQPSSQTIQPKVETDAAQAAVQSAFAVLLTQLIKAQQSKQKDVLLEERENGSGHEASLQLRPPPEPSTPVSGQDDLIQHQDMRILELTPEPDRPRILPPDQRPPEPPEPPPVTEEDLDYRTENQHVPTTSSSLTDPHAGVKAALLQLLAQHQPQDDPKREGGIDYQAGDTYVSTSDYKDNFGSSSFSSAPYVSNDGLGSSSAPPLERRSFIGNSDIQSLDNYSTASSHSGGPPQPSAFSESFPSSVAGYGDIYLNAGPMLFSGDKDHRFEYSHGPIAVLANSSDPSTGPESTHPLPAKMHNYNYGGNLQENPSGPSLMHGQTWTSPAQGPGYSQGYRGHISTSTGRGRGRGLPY

[8] = molecular target: T2, Cyclin-dependent kinase 13; test: Inhibition of CDK13 (unknown origin) at 10 uM relative to control
Target sequence in this assay (Q14004 whole entry, looked up): as the sequence (Q14004 whole entry) above

[9] = molecular target: Cyclin-dependent kinase 4 (Homo sapiens) (UniProt P11802); test: Inhibition of CDK4 (unknown origin) at 10 uM relative to control
[10] = molecular target: Cyclin-dependent kinase 19 (Homo sapiens) (UniProt Q9BWU1); test: Inhibition of CDK11 (unknown origin) at 10 uM relative to control
[11] = molecular target: Cyclin-dependent kinase-like 1 (Homo sapiens) (UniProt Q00532); test: Inhibition of CDKL1 (unknown origin) at 10 uM relative to control
Cyclin-dependent kinase-like 1 (Homo sapiens), sequence (Q00532 whole entry): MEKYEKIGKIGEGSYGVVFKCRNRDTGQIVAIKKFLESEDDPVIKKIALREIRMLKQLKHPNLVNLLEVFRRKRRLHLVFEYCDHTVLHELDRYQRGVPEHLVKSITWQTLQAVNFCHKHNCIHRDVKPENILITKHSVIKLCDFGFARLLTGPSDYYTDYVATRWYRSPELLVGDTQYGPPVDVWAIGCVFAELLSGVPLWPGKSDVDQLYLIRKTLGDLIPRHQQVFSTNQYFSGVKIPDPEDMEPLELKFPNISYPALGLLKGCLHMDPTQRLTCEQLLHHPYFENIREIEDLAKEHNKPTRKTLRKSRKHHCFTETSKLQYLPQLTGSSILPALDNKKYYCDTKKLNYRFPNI

[12] = molecular target: Cyclin-dependent kinase 3 (Homo sapiens) (UniProt Q00526); test: Inhibition of CDK3 (unknown origin) at 10 uM relative to control
[13] = molecular target: T3, Cyclin-dependent kinase-like 5 (Homo sapiens) (UniProt O76039); test: Inhibition of CDKL5 (unknown origin) at 10 uM relative to control
T3 sequence (whole entry): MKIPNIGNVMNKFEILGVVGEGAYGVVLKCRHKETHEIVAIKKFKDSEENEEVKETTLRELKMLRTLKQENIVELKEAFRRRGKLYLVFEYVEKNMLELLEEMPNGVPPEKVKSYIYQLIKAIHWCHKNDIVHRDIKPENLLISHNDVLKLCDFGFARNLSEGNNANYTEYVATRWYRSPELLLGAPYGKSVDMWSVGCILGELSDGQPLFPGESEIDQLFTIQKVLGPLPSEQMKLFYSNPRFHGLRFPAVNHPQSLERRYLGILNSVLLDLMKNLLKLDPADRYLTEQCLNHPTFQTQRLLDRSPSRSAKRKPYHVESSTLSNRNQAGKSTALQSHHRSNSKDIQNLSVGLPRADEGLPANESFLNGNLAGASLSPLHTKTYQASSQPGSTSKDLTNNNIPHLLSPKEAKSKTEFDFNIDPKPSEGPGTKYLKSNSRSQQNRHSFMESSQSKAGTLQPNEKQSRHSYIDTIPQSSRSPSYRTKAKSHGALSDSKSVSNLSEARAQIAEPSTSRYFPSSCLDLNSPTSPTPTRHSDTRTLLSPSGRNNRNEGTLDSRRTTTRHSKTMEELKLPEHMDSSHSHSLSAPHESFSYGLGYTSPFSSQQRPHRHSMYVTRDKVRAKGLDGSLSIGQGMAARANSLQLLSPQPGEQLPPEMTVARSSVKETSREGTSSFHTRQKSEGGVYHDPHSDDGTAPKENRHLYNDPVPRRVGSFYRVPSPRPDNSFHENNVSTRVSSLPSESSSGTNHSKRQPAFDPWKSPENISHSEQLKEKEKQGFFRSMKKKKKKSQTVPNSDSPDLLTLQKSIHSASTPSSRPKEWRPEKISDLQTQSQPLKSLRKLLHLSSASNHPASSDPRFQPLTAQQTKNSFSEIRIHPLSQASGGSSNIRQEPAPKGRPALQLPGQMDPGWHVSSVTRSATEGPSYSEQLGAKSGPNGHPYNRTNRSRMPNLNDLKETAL

[14] = molecular target: Cyclin-dependent kinase-like 3 (Homo sapiens) (UniProt Q8IVW4); test: Inhibition of CDKL3 (unknown origin) at 10 uM relative to control
Cyclin-dependent kinase-like 3 (Homo sapiens), sequence (Q8IVW4 whole entry, looked up): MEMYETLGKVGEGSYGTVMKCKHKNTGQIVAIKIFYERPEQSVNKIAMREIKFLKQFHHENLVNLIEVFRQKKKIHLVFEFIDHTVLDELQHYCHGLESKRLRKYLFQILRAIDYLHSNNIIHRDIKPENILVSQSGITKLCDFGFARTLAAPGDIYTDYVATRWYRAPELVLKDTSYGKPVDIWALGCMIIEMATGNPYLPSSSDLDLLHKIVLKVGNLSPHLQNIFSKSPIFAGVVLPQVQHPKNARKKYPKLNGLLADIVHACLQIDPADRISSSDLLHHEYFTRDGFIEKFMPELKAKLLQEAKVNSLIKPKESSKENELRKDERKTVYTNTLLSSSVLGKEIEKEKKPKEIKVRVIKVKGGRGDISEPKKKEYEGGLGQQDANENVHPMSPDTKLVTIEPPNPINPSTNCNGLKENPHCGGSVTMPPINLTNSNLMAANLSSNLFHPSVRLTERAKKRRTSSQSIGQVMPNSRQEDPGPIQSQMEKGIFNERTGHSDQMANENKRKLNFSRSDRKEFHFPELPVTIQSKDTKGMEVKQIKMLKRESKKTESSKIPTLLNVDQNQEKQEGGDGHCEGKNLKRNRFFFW

[15] = molecular target: Cyclin-dependent kinase 2 (Homo sapiens) (UniProt P24941); test: Inhibition of CDK2 (unknown origin) at 10 uM relative to control
[16] = molecular target: CDK4/Cyclin D3 (Homo sapiens) (UniProt P11802+P30281); test: Inhibition of CDK4/Cyclin D3 (unknown origin) at 10 uM relative to control; format: protein-complex assay
[17] = molecular target: Cyclin-dependent kinase 9 (Homo sapiens) (UniProt P50750); test: Inhibition of CDK9 (unknown origin) at 10 uM relative to control
Cyclin-dependent kinase 9 (Homo sapiens), sequence (P50750 whole entry): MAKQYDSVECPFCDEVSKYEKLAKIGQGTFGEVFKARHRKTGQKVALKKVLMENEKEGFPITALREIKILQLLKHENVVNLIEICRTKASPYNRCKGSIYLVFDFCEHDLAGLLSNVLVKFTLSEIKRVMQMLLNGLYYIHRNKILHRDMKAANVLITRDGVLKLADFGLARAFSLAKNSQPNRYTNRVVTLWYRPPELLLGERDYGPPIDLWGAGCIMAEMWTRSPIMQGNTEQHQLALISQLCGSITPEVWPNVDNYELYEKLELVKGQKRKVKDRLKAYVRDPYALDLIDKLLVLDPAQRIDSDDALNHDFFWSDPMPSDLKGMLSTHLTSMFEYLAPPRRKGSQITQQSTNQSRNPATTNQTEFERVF

[18] = molecular target: Cyclin-dependent kinase 4/cyclin D1 (Homo sapiens) (UniProt P11802+P24385); test: Inhibition of CDK4/Cyclin D1 (unknown origin) at 10 uM relative to control; format: protein-complex assay
[19] = molecular target: Cyclin-dependent kinase 8 (Homo sapiens) (UniProt P49336); test: Inhibition of CDK8 (unknown origin) at 10 uM relative to control
Cyclin-dependent kinase 8 (Homo sapiens), sequence (P49336 whole entry): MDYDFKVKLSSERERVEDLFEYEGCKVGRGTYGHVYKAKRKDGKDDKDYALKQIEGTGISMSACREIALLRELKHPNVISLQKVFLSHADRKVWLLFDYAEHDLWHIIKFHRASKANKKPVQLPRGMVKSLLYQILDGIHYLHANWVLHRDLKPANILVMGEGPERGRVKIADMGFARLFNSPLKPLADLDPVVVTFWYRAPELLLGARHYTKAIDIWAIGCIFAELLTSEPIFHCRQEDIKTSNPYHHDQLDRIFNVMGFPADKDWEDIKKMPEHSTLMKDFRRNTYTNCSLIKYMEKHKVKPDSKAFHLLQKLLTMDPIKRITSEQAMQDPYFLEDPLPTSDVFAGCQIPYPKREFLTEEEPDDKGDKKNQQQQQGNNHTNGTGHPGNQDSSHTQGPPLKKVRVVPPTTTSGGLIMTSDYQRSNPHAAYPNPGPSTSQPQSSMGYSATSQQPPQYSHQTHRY

[20] = molecular target: T4, Cyclin-dependent kinase-like 2 (Homo sapiens) (UniProt Q92772); test: Inhibition of CDKL2 (unknown origin) at 10 uM relative to control
T4 sequence (whole entry): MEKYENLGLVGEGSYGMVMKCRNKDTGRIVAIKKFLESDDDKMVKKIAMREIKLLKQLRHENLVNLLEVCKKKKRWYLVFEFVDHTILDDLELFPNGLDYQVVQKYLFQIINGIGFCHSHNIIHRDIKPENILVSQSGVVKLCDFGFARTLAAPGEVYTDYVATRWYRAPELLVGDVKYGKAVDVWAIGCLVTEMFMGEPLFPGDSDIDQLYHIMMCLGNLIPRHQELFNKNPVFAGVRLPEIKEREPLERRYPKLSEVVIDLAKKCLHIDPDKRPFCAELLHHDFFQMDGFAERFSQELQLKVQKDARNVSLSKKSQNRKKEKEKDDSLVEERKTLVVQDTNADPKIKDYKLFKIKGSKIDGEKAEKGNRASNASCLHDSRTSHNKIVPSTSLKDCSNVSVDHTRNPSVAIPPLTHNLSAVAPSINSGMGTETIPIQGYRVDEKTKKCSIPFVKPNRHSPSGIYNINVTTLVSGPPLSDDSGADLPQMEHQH

[21] = molecular target: Cyclin-dependent kinase 5 (Homo sapiens) (UniProt Q00535); test: Inhibition of CDK5 (unknown origin) at 10 uM relative to control

Structure (SMILES)	inhibition (INH) (Cytochrome P450 2C9) [%]	inhibition (INH) (Cytochrome P450 1A2) [%]	inhibition (INH) (Cytochrome P450 3A4) [%]	inhibition (INH) (Cytochrome P450 2D6) [%]	IC50 [1] [nM]	IC50 [3] [nM]	inhibition [5] [%]	Kd [6] [nM]	Kd [7] [nM]	inhibition [8] [%]	inhibition [10] [%]	inhibition [11] [%]	inhibition [12] [%]	inhibition [13] [%]	inhibition [14] [%]	inhibition [15] [%]	inhibition [16] [%]	inhibition [17] [%]	inhibition [18] [%]	inhibition [19] [%]	also measured
Cn1cc(-n2cnc3c(NCc4nc5cc(F)c(F)cc5[nH]4)nc(N4CCOCC4)nc32)cn1	23	5	55	2	–	–	–	–	–	–	–	–	–	–	–	–	–	–	–	–	–
Cn1cc(-n2cnc3c(NCc4nc5cc(Cl)c(Cl)cc5[nH]4)nc(N4CCOC[C@H]4CO)nc32)cn1	54	39	54	29	5360	6070	–	–	–	–	–	–	–	–	–	–	–	–	–	–	Cmax [2]: 1430 ng/mL and 2.7 µM; AUC(0-t) [4]: 10 µM·h
COc1cc2nc(CNc3nc(N4CCOCC4)nc4c3ncn4-c3cnn(C)c3)[nH]c2cc1Cl	–	–	–	–	2620	–	98	38	2	12	–	–	–	–	–	–	–	–	–	–	inhibition [9]: 99%
FC(F)n1cc(-n2cnc3c(NCc4nc5cc(Cl)c(Cl)cc5[nH]4)nc(N4CCOCC4)nc32)cn1	–	–	–	–	709	1260	–	310	9	–	–	–	–	–	–	–	–	–	–	–	–
Cn1cc(-n2cnc3c(NCc4nc5cc(Cl)c(Cl)cc5[nH]4)nc(N4CCOC[C@@H]4CO)nc32)cn1	69	42	77	42	145	333	–	–	–	–	–	–	–	–	–	–	–	–	–	–	–

Further lines, with some results ahead:

inhibition (INH) (Cytochrome P450 2C9) [%]	inhibition (INH) (Cytochrome P450 1A2) [%]	inhibition (INH) (Cytochrome P450 3A4) [%]	inhibition (INH) (Cytochrome P450 2D6) [%]	IC50 [1] [nM]	IC50 [3] [nM]	inhibition [5] [%]	Kd [6] [nM]	Kd [7] [nM]	inhibition [8] [%]	inhibition [10] [%]	inhibition [11] [%]	inhibition [12] [%]	inhibition [13] [%]	inhibition [14] [%]	inhibition [15] [%]	inhibition [16] [%]	inhibition [17] [%]	inhibition [18] [%]	inhibition [19] [%]	Structure (SMILES)	also measured
23	10	56	-3	–	–	69	–	–	100	0	16	3	0	0	6	99	43	99	0	Cn1cc(-n2cnc3c(NCc4nc5c(F)c(F)ccc5[nH]4)nc(N4CCOCC4)nc32)cn1	inhibition [20]: 0%
23	5	55	2	–	–	69	–	–	100	23	16	8	1	0	3	99	64	99	40	Cc1cc(-n2cnc3c(NCc4nc5c(F)c(F)ccc5[nH]4)nc(N4CCOCC4)nc32)no1	inhibition [20]: 2%
–	97	89	57	1280	870	–	18	6	–	–	–	–	–	–	–	–	–	–	–	Fc1ccc2[nH]c(CNc3nc(N4CCOCC4)nc4c3ncn4-c3cscn3)nc2c1F	–
–	–	–	–	–	–	72	–	–	100	0	8	6	0	5	1	95	69	97	22	Fc1cccc(-n2cnc3c(NCc4nc5c(F)c(F)ccc5[nH]4)nc(N4CCOCC4)nc32)c1	inhibition [20]: 0%; inhibition [21]: 18%
